The source of these data is patent US6994981B2, “Modulators of paraptosis and related methods” (The Buck Institute, priority 2002, dated 2006).

Assay [1] concerns striatal, cortical, and hippocampal neurons. In words: SP-induced cell death in primary striatal, cortical and hippocampal neurons, trypan blue viability and staining. In kind it is cell-based, rat. The settings on record: compared with SP. The procedure: Rat neuronal primary cell cultures were also used to assay for inducers and inhibitors of paraptosis. Briefly, primary striatal, cortical and hippocampal cultures were prepared from 17-day-old Sprague-Dawley rat embryos (B&K). The tissue was dissected, minced and trypsinized for five minutes using 0.25% trypsin (Cell Grow). After the addition of 10% horse serum (Life Technologies) to inhibit the trypsin, the cell suspension was triturated 15–20 times with a 10 ml syringe and centrifuged for five minutes at 800×g. The pellet was resuspended in MEM-PAK (UCSF Cell Culture facility), supplemented with 2.02 gm glucose, 2 mM GLUTAMAX™ (Life Technologies) and penicillin/streptomycin (100 U/ml). The suspension was filtered through a […] cell strainer and the final culture medium contained 5% horse serum. Subsequently, 3-4×10^5 cells per Cm^2 were seeded onto either poly-D-lysine precoated 8-well chamber slides (Becton-Dickson Labware) or 96 well plates precoated with […] of poly-D-lysine (Sigma) in water. After 30 minutes of incubation time, unattached cells were removed together with the medium and replaced with glucose enriched MEM-PAK plus 5% horse serum. The cultures were then incubated at 37° C. in 95% air 5% carbon dioxide with 95% humidity. Cultures were used for experiments between day 1 and day 7 when glial contamination was at a minimum.
Primary neuronal cells were prepared as described in Example I. SP (SIGMA) at a concentration of 0.1 nM–100 μM was added 24–48 hrs after seeding, in the presence of 2.5% horse serum. When the cultures were maintained for more than 5 days, 10 μM cytosine arabinoside was added for 24 hours, beginning 3 days after plating the cells. Viability was quantified by trypan blue staining of the total cell population.
The following compounds were added at the same time as SP in the indicated experiments: 5 nM L-732, 138; 1 nM L-733,060; 1 μg/ml Actinomycin D or 1 μg/ml Cycloheximide. All of these compounds were obtained from SIGMA. The caspase inhibitors zVAD.fmk and BAF were added at 50 μM and obtained from Enzyme System Products, Livermore, Calif.
Either neuronal primary cultures or human embryonic kidney 293T cells were fixed with 4% paraformaldehyde and stained with 0.5 μg/ml DAPI (Molecular Probes) or Hoechst(SIGMA). […]
The protein kinase inhibitors were added 30 min before SP exposure at the following concentrations: 10 μM Rp-8-Br-cAMPS (adenosin 3′,5′-cyclic monophosphorothioate, 8-bromo-, Rp-isomer, sodium salt) which is a PKA inhibitor; 50 nM Calphostin C, which is a PKC inhibitor; 10 μM PD 98059 which is a MAPKK (MEK) inhibitor. These compounds were obtained from Calbiochem. Viability was quantified by trypan blue staining of the total cell population.

Assay [2] deals with neurokinin-1 receptor (NK1R) (Rattus norvegicus, UniProt P14600). The settings on record: cited from earlier work.
Sequence of neurokinin-1 receptor (NK1R) (P14600 whole entry): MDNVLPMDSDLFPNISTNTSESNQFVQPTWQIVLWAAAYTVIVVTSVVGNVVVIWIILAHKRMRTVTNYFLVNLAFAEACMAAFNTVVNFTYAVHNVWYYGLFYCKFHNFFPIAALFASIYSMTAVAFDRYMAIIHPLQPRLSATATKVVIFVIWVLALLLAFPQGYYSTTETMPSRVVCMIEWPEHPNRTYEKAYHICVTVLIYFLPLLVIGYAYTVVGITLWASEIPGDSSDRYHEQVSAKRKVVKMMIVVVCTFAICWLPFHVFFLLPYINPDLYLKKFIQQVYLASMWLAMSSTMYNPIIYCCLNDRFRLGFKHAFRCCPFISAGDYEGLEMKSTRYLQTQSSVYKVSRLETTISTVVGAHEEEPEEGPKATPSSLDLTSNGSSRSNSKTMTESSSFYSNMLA

No end group written: not given here.

“SP 6–11: truncated form of SP containing amino acids 6 through 11 of the SP polypeptide (QFFGLM; ends and bridges not checked)”: in assay [1], the “induction of cell death by NK1R agonists” value is reported as “able to induce cell death as well as SP”. Moreover, the “affinity for NK1R” value in assay [2] is “good affinity”.
